Results on 1 compound are retold here after patent US20240075041A1, “TREATMENT OF EOSINOPHILIC DISORDERS WITH AVAPRITINIB” (Blueprint Medicines Corporation, priority 2019, published 2024).

For one data set, the system named is eosinophils. Kind of data set: Measurement of absolute eosinophils in Phase 1 clinical trial patients (routine blood test at C1D15). The settings on record: adult patients with AdvSM, oral Compound (I) 30 mg to 400 mg QD, C1D15 (after 2 weeks), baseline absolute eosinophil count >0.5, FIGS. 1-4. The class given is in vivo, human. The procedure: The dose range of Compound (I) is between 30 mg and 400 mg. The patients with baseline absolute eosinophil count of >0.5.
The patients with baseline absolute eosinophil count of >0.5.
The dose range of Compound (I) is between 200 mg and 300 mg. The patients with baseline absolute eosinophil count of >0.5.
(§1) This is a Phase 1, open-label, study designed to evaluate the safety, tolerability, PK, PD, and preliminary antineoplastic activity of Compound (I), administered orally, in adult patients with advanced systemic mastocytosis (AdvSM) and relapsed or refractory myeloid malignancies.
(§2) The study consists of 2 parts: dose-escalation (Part 1) and expansion (Part 2). Approximately 25 patients were in Part 1 and approximately 55 patients were in Part 2.
A treatment cycle is 28 days in duration. Patients presented to the study center on C1D1 for the first dose of study drug and serial PK sampling, PD sample collection, vital sign measurement, electrocardiogram (ECG) monitoring, patient general impression of symptom severity (PGIS) and European Organization for Research and Treatment of Cancer Core Quality of Life Questionnaire (EORTC QLQ-C30), safety monitoring and adverse event (AE) recording.
Eosinophils in patients were measured at C1D15 (cycle 1, day 15) via a routine blood test, see, e.g., LaGow B et al., eds. PDR Lab Advisor. A Comprehensive Point-of-Care Guide for Over 600 Lab Tests. 1st ed. […]

The next data set deals with KIT D816V (Homo sapiens, UniProt P10721, D816V). The experiment in a line: Activity against KIT D816V in vitro. In kind it is biochemical.
KIT D816V, sequence (P10721 26-976 D816V): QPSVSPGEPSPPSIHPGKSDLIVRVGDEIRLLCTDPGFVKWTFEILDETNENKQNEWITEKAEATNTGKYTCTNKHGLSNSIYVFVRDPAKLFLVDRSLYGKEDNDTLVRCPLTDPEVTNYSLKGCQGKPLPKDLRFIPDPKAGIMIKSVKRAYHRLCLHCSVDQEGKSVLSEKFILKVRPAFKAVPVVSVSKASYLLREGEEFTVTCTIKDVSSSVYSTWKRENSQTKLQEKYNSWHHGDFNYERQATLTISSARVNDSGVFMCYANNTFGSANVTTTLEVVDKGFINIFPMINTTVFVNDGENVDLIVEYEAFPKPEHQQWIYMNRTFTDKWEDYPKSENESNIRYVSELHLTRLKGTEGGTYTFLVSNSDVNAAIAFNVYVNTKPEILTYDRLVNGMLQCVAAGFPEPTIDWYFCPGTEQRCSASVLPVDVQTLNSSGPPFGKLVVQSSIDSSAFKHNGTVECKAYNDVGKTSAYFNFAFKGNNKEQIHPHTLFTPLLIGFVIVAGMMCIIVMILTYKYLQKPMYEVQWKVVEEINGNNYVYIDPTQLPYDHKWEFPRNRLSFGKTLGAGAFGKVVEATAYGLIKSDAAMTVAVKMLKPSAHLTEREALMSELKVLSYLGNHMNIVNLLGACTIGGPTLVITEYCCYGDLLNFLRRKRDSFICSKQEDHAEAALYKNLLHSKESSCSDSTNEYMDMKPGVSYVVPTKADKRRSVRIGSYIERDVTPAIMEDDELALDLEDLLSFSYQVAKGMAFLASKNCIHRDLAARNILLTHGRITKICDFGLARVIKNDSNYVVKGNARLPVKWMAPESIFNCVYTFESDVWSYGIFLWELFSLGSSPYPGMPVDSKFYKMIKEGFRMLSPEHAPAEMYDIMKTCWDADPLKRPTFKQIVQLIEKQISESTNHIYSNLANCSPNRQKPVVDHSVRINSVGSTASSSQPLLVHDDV
The subject of data set [1] is tyrosine kinase inhibitor (TKI)-resistant mastocytoma model. Kind of data set: TKI-resistant mastocytoma model in vivo.
Data set [2] can be described thus: Toxicology and safety pharmacology studies. In kind it is in vivo. To be noted: at active doses.
Data set [3] can be described thus: Phase 1 dose escalation in advanced systemic mastocytosis (NCT02561988). The settings on record: patients with advanced systemic mastocytosis, Phase 1 study, oral. In kind it is in vivo.
Excerpt: as §1, §2
Patients with AdvSM or a relapsed or refractory myeloid malignancy were enrolled in the dose escalation part of the study. A 3+3 dose-escalation design using cohorts of 3 patients were employed.
The first cohort of patients received Compound (I) at a starting dose of 30 mg once daily (QD). Dose escalation proceeded at increments up to 100% until ≥1 patient treated at a given dose level has a ≥Grade 2 non-hematologic AE or a Grade 4 hematologic AE and the AE (non-hematologic or hematologic) was not clearly attributable to a cause other than Compound (I) or the dose exceeds the highest dose determined to be safe in the ongoing Compound (I) first-in-human (FIH) study in GIST, BLU-285-1101.
Three patients were enrolled initially in each cohort and an additional 3 patients (for a total of 6) were enrolled when the cohort requires expansion due to dose-limiting toxicity (DLT). […]

Structures are written as SMILES. “Also recorded” adds a separate entry of the source.

With `Cn1cc(-c2cc3c(N4CCN(c5ncc([C@@](C)(N)c6ccc(F)cc6)cn5)CC4)ncnn3c2)cn1` [Compound (I), (S)-1-(4-fluorophenyl)-1-(2-(4-(6-(1-methyl-1H-pyrazol-4-yl)pyrrolo[2,1-f][1,2,4]triazin-4-yl)piperazin-yl)pyrimidin-5-yl)ethan-1-amine], in the data set on eosinophils, the “absolute eosinophil changes from baseline levels” value is listed as “significantly decreases number of absolute eosinophils; also recorded: effectively reduces eosinophil levels”. The “activity against KIT D816V in vitro” value on KIT D816V was “potent and selective activity”. The “growth inhibition in TKI-resistant mastocytoma model” value in data set [1] is “robust growth inhibition”. Besides, the tolerability result in data set [2] is on record as “tolerability at active doses”. For the same compound, the “recommended Phase 2 dose (RP2D)” value in data set [3] is on record as 300 mg once a day (QD).
